Measurements reported in patent publication US4549023A, “3-Aminoindazole derivatives” (priority 1980, dated 1985).
Like-named read-outs stand apart in the source and are kept apart here.

What was measured:
gastric ulcer in rats = test: Anti-Ulcer Test: occurrence of gastric ulcer by test compound alone; assay type: in vivo, Male donryu rats
Description: Ulcer inhibition of 3-(3-diethylaminopropylamino)indazole (10) and 1-(3-piperidinopropyl)-3-aminoindazole (18), typical and preferred compounds of this invention, was measured.

[1] = Acute toxicity (LD50), intravenous injection; conditions: mouse, in vivo, male ddY-strain mice, read-out: LD50, Table 19
Description: Acute toxicity was measured by an ordinary method described in Finney DJ Probit Analysis Cambridge University Press 48, (1952). Ddy mice weighing about 18 g on average, each group consisting of 10 animals, were […] injected with the physiological salt solution containing the test compound. The amount of the test compound administered was varied in 5-8 groups. Three days after the administration, dead animals were counted in each group. The amount of the test compound killing half the number of the animals (LD50) was calculated from the results.
The acute toxicity of the 3-aminoindazole derivatives and their hydrochloric acid salts obtained by Examples 1-49 of this invention was measured by giving male ddY-strain mice an intravenous injection.

[2] = tested on: gastric ulcer caused by indomethacin; conditions: 100 mg/kg compound together with 10 mg/kg of indomethacin
Description: The test compound was suspended in 1% HCO-60 (trade name for polyoxyethylene hydrogenated castor oil; a product of Nikko Chemical Co., Ltd., Japan) at the concentration of 10 mg/ml. Male donryu rats weighing 150-160 g were orally administered 100 mg/kg of the test compound. The occurrence of gastric ulcer was examined 24 hours after the administration.
It is well known that the single use of acidic non-steroidal anti-inflammatory drugs causes a side effect in digestive tracts such as gastric ulcer.

[3] = tested on: acetic acid-induced writhing in mice; test: Acetic Acid-Writhing Test (analgesic activity); assay type: in vivo, Male ddy-strain mice; conditions: 100 mg/kg, oral, hydrochloric acid salts
Description: Acetic acid-writhing test was carried out according to Koster et al., Fed. Proc., 18, 412 (1959). […] Thirty minutes later, the mice were intraperitoneally injected with 0.1 ml/10 g of 0.7% acetic acid physiological salt solution as a stimulant. Ten minutes after the stimulant injection, writhing frequency as pain response was observed and recorded over 10 minutes.
The inhibition percentage of the test compound was represented as the ratio of the inhibition of the writhing frequency.
Analgesic activity of 3-aminoindazole derivative hydrochloric acid salts was measured by acetic acid-writhing test.

[4] = tested on: carrageenin edema in rat's paw; test: Carrageenin Edema Test in Rat's Paw (anti-inflammatory activity); assay type: in vivo, Female Wistar rats; conditions: for inhibition in vivo at 100 mg/kg: Rattus norvegicus, hydrochloric acid salts
Description: A standard method of Carrageenin Edema Test in Rat's Paw described in C. A. Winter et al., Proc. Soc. Exp. Biol. Med., 111, 544 (1962) was employed.
[…] One hour later, the pad of a hind paw of the rat was injected with 0.1 ml of 1% aqueous carrageenin solution. The volume of the paw was measured both before the injection of carrageenin and three hours after the injection.
The edema inhibition percentage of the test compound was calculated from the ratio of the increase in the volume of the affected paw of the test animals to the increase in the volume of the affected paw of the controls.
The anti-inflammatory activity of the 3-aminoindazole derivative hydrochloric acid salts of this invention was measured.
The anti-inflammatory activity of the 3-aminoindazole derivative hydrochloric acid salts obtained by Examples 1-49 of this invention was measured by the standard method of carrageenin edema test. In these tests, the amount of the administration of the salts was 100 mg/kg. The results are shown in Table 17 (Inhibition (%) was measured three hours after the injection).

[5] = tested on: carrageenin-inflamed hind paw of the rat (pressure pain); test: Randall-Selitto Test (analgesic activity); assay type: in vivo, Female wister rats; conditions: 100 mg/kg, hydrochloric acid salts; water 0.8
Description: The Randall-Selitto analgesic activity test was carried out according to the general method described in J. O. Randall & J. J. Selitto, Arch. Int. Pharmacodyn, 111, 409 (1957). Female wister rats weighing 120-150 g were orally administered 50 mg/kg of the test compound as an aqueous solution. Thirty minutes later, the pad of a hind paw of the rat was injected with 0.1 ml of 1% aqueous carrageenin solution. Pressure was applied to the paw where edema was formed by Balance-type Pressure Device (Ugo Basile Company; Italy) 1, 2, 3 and 4 hours after the injection. The weight when the test animals began to struggle with pain was measured. The analgesic activity is represented by an analgesic coefficient which is obtained by dividing the average weight measured 1.5, 2.5, 3.5 and 4.5 hours after the administration by the applied weight prior to the administration.
The analgesic activity of the 3-aminoindazole derivative hydrochloric acid salts obtained by Examples 2, 6, 10, 18, 22 and 28 of this invention was measured by the standard method of Randall-Selitto test. In these tests, the amount of the administration of the salts was 100 mg/kg.

primary inflammation = conditions: Silvest et al., Arzneim-Forsch, 16, 59 (1966); cited from earlier work

Row | Compound | Gastric ulcer occurrence (gastric ulcer in rats; 100 mg/kg singly administered at one time, oral) | Gastric ulcer occurrence (gastric ulcer in rats; administered for 5 days) | LD50 at 72 h [1] | Occurrence frequency in combination [2] | Ulcer index in combination [2] | Inhibition (acetic acid-writhing), Table 3 [3] | inhibition in vivo at 100 mg/kg ([4]; po, 3 h, 100 mg/kg, measured three hours after the injection, read-out: Inhibition (carrageenin edema), Table 17) | inhibition in vivo at 100 mg/kg ([4]; 100 mg/kg, oral, 3 h after carrageenin, read-out: Inhibition (carrageenin edema), Table 1) | Inhibition values compared with comparative compounds ([4]; Table 1, 100 mg/kg) | Analgesic Coefficient, Table 18 [5] | Effect against primary inflammation (primary inflammation) | Inhibition (carrageenin edema), Table 2 ([4]; 25 mg/kg, oral) | Inhibition (carrageenin edema), Table 2 ([4]; 50 mg/kg, oral) | Inhibition (carrageenin edema), Table 2 ([4]; 100 mg/kg, oral)
1 | Nc1nn(CCCN2CCCCC2)c2ccccc12 [Compound (18), 1-(3-piperidinopropyl)-3-aminoindazole] | Gastric ulcer did not occur | gastric ulcer did not occur | 102 mg/kg | not changed | 2.5 mm | 43% | 54% | 54% | higher than those of the compounds C-2 and C-3 | 1.38 | – | – | – | –
2 | CN(C)CCCOc1nn(Cc2ccccc2)c2ccccc12 [Compound C-4, 1-benzyl-3-(3-dimethylaminopropoxy)indazole, reference compound] | – | – | – | – | – | – | – | – | – | – | effective against primary inflammation | 8% | 20% | 51%
